Strand notation (5' to 3'): a small letter for the sugar, then the base; units joined by * are phosphorothioate-linked, units joined directly phosphodiester-linked; [ ] holds rarer units or linkages, { } end groups; capitals alone tell only the bases. [ms] = mesyl phosphoramidate linkage; e = 2'-O-(2-methoxyethyl) (MOE); k = constrained ethyl (cEt); [5mC] = 5-methylcytosine; d = 2'-deoxy (DNA)
Experiments:
[1] = tested on: human APOE RNA; test: Activity in APOE C57BL/6NTac-Apoeem7250 knock-in mice, single ICV bolus, 16 weeks (Example 12); format: in vivo; details: single ICV bolus 300 μg, 16 weeks post treatment, normalized to mouse Ppia
Method: (§1) Modified oligonucleotides described above were tested in the APOE C57BL/6NTac-Apoeem7250 knock-in mouse model described above.
APOE C57BL/6NTac-Apoeem7250 knock-in mice were divided into groups of 3-4 mice each. Each mouse received a single intracerebroventricular (ICV) bolus of 300 μg of modified oligonucleotide. A group of 4 mice received a single ICV bolus with PBS as a negative control.
(§2) Sixteen weeks post treatment, mice were sacrificed and RNA was extracted from cortical brain tissue and spinal cord for quantitative real-time RT-PCR analysis of RNA expression of APOE using primer probe set RTS3073 (described herein above). APOE RNA levels were normalized to mouse Ppia. Mouse Ppia was amplified using primer probe set m_cyclo24 (described herein above). Results are presented as percent human APOE RNA relative to the amount of human APOE RNA in PBS treated animals, (% control). Each experiment is identified in separate tables below.

[2] = tested on: human APOE RNA; test: Activity in APOE C57BL/6NTac-Apoeem7250 knock-in mice, single ICV bolus, 8 weeks (Example 11); format: in vivo; details: for APOE RNA (% control) Cortex / APOE RNA (% control) Spinal Cord: single ICV bolus 300 μg, 8 weeks post treatment, normalized to mouse Ppia
Method: as §1
Each mouse received a single ICV bolus of 300 μg of modified oligonucleotide. A group of 3-4 mice received a single ICV bolus with PBS as a negative control.
as §2, with “Eight weeks post” for “Sixteen weeks post”, “APOE using human primer probe” for “APOE using primer probe”

Substance	APOE RNA (% control) Cortex ([1]; cortex) [% control]	APOE RNA (% control) Spinal Cord ([1]; spinal cord) [% control]	APOE RNA (% control) Cortex [2] [% control]	APOE RNA (% control) Spinal Cord [2] [% control]	reduction of human APOE RNA in the cortex ([2]; APOE knock-in mouse model, 8 weeks post administration, assay of Example 11) [%]
1693048: 5-10-5 MOE gapmer CTTGGTGAATCTTTATTAAA, linkages ssssszzzzssssszosss (antisense e[5mC]*eT*eT*eG*eG*dT[ms]dG[ms]dA[ms]dA[ms]dT*d[5mC]*dT*dT*dT*dA[ms]eTeT*eA*eA*eA) [compound 1693048]	105	71	97	87	–
1809691: mixed MOE/cEt gapmer CTTGGTGAATCTTTATTAA, sugar eeeekddddddddddkeek, linkages sosssszzzssssszoss (e[5mC]*eTeT*eG*kG*dT*dG[ms]dA[ms]dA[ms]dT*d[5mC]*dT*dT*dT*dA[ms]kTeT*eA*kA) [compound 1809691]	–	–	27	17	–
1652918: 6-10-4 MOE gapmer GGTGAATCTTTATTAAACTA, linkages sooooozzzsssssssoss (antisense eG*eGeTeGeAeAdT[ms]d[5mC][ms]dT[ms]dT*dT*dA*dT*dT*dA*dA*eAe[5mC]*eT*eA) [compound 1652918]	–	–	91	47	–
1652911: 5-10-5 MOE gapmer GGTGAATCTTTATTAAACTA, linkages sooosszzzssssssooss (antisense eG*eGeTeGeA*dA*dT[ms]d[5mC][ms]dT[ms]dT*dT*dA*dT*dT*dA*eAeAe[5mC]*eT*eA) [compound 1652911]	–	–	130	57	–
1652913: 5-10-5 MOE gapmer GGTGAATCTTTATTAAACTA, linkages soooszssssszsszooss (antisense eG*eGeTeGeA*dA[ms]dT*d[5mC]*dT*dT*dT*dA[ms]dT*dT*dA[ms]eAeAe[5mC]*eT*eA) [compound 1652913]	–	–	75	33	–
1652917: 6-10-4 MOE gapmer GGTGAATCTTTATTAAACTA, linkages sooooossssszsszzoss (antisense eG*eGeTeGeAeAdT*d[5mC]*dT*dT*dT*dA[ms]dT*dT*dA[ms]dA[ms]eAe[5mC]*eT*eA) [compound 1652917]	–	–	107	41	–
1652910: 5-10-5 MOE gapmer GGTGAATCTTTATTAAACTA, linkages sooosszzsssssssooss (antisense eG*eGeTeGeA*dA*dT[ms]d[5mC][ms]dT*dT*dT*dA*dT*dT*dA*eAeAe[5mC]*eT*eA) [compound 1652910]	–	–	82	39	–
Compound No. 1517578: comparator of WO 2022/066956; CTTGGTGAATCTTTATTAAA, sugar eeeeeddddddddddeeeee, linkages sooosssssssssssooss (MOE gapmer, mixed PS/PO linkages, chemistry not fully specified) [reference compound]	–	–	66	47	34
1652914: 5-10-5 MOE gapmer GGTGAATCTTTATTAAACTA, linkages soooszzssssssszooss (antisense eG*eGeTeGeA*dA[ms]dT[ms]d[5mC]*dT*dT*dT*dA*dT*dT*dA[ms]eAeAe[5mC]*eT*eA) [compound 1652914]	–	–	108	43	–
1809745: mixed MOE/cEt gapmer CTTGGTGAATCTTTATTAAAC, sugar eeeeekddddddddddeeeee, linkages zsoooszzsssssszsoosz (e[5mC][ms]eT*eTeGeGkT*dG[ms]dA[ms]dA*dT*d[5mC]*dT*dT*dT*dA[ms]dT*eTeAeA*eA[ms]e[5mC]) [compound 1809745]	–	–	26	16	–
1810069: mixed MOE/cEt gapmer CTTGGTGAATCTTTATTAAAC, sugar eeeeekddddddddddeeeee, linkages zsossszzzssssszsoosz (e[5mC][ms]eT*eTeG*eG*kT*dG[ms]dA[ms]dA[ms]dT*d[5mC]*dT*dT*dT*dA[ms]dT*eTeAeA*eA[ms]e[5mC]) [compound 1810069]	–	–	24	27	–
1652898: 6-10-4 MOE gapmer GGTGAATCTTTATTAAACTA, linkages sooooossssssssssoss (antisense eG*eGeTeGeAeAdT*d[5mC]*dT*dT*dT*dA*dT*dT*dA*dA*eAe[5mC]*eT*eA) [compound 1652898]	–	–	56	20	–
1652919: 6-10-4 MOE gapmer GGTGAATCTTTATTAAACTA, linkages soooooszzzssssssoss (antisense eG*eGeTeGeAeAdT*d[5mC][ms]dT[ms]dT[ms]dT*dA*dT*dT*dA*dA*eAe[5mC]*eT*eA) [compound 1652919]	–	–	90	54	–
1810063: mixed MOE/cEt gapmer CTTGGTGAATCTTTATTAAAC, sugar eeeeeeddddddddddkkeee, linkages ssoosszzzssssszsooss (e[5mC]*eT*eTeGeG*eT*dG[ms]dA[ms]dA[ms]dT*d[5mC]*dT*dT*dT*dA[ms]dT*kTkAeA*eA*e[5mC]) [compound 1810063]	–	–	43	40	–
1652905: 6-10-4 MOE gapmer GGTGAATCTTTATTAAACTA, linkages sooossssssssssssoss (antisense eG*eGeTeGeA*eA*dT*d[5mC]*dT*dT*dT*dA*dT*dT*dA*dA*eAe[5mC]*eT*eA) [compound 1652905]	–	–	44	15	–
1809818 (eT*eTeGkG*dT*dG[ms]dA[ms]dA[ms]dT*d[5mC]*dT*dT*dT*dA[ms]kT*kTeAeA*eA*e[5mC]; antisense) [Compound 1809818]	–	–	42	36	–
1652908: 5-10-5 MOE gapmer GGTGAATCTTTATTAAACTA, linkages soooszzzsssssssooss (antisense eG*eGeTeGeA*dA[ms]dT[ms]d[5mC][ms]dT*dT*dT*dA*dT*dT*dA*eAeAe[5mC]*eT*eA) [compound 1652908]	–	–	54	18	–
1652899: 6-10-4 MOE gapmer TGGTGAATCTTTATTAAACT, linkages sooooossssssssssoss (antisense eT*eGeGeTeGeAdA*dT*d[5mC]*dT*dT*dT*dA*dT*dT*dA*eAeA*e[5mC]*eT) [compound 1652899]	–	–	57	16	–
1809813 (eT*eTeGkG*dT*dG[ms]dA[ms]dA[ms]dT*d[5mC]*dT*dT*dT*dA[ms]kT*kT*eA*eA*eA*e[5mC]; antisense) [Compound 1809813]	–	–	37	32	–
1652900: 6-10-4 MOE gapmer GTGAATCTTTATTAAACTAG, linkages sooooossssssssssoss (antisense eG*eTeGeAeAeTd[5mC]*dT*dT*dT*dA*dT*dT*dA*dA*dA*e[5mC]eT*eA*eG) [compound 1652900]	–	–	83	47	–
1652909: 5-10-5 MOE gapmer GGTGAATCTTTATTAAACTA, linkages soooszzzzssssssooss (antisense eG*eGeTeGeA*dA[ms]dT[ms]d[5mC][ms]dT[ms]dT*dT*dA*dT*dT*dA*eAeAe[5mC]*eT*eA) [compound 1652909]	–	–	55	23	–
1652907: 5-10-5 MOE gapmer GGTGAATCTTTATTAAACTA, linkages soooszzssssssssooss (antisense eG*eGeTeGeA*dA[ms]dT[ms]d[5mC]*dT*dT*dT*dA*dT*dT*dA*eAeAe[5mC]*eT*eA) [compound 1652907]	–	–	54	16	–
1652912: 5-10-5 MOE gapmer GGTGAATCTTTATTAAACTA, linkages sooossssssszsszooss (antisense eG*eGeTeGeA*dA*dT*d[5mC]*dT*dT*dT*dA[ms]dT*dT*dA[ms]eAeAe[5mC]*eT*eA) [compound 1652912]	–	–	95	41	–
1809688: mixed MOE/cEt gapmer CTTGGTGAATCTTTATTAA, sugar eeeekddddddddddkkee, linkages sosssszzzssssszoss (e[5mC]*eTeT*eG*kG*dT*dG[ms]dA[ms]dA[ms]dT*d[5mC]*dT*dT*dT*dA[ms]kTkT*eA*eA) [compound 1809688]	–	–	22	37	–

Source: patent US20250353873A1, “COMPOUNDS AND METHODS FOR MODULATING APOE EXPRESSION” (Ionis Pharmaceuticals, Inc., priority 2024, published 2025)
